Laboratory results reported in ChEMBL document CHEMBL3751764, “Synthesis and in vitro antiproliferative activity of novel pyrazolo[3,4-d]pyrimidine derivatives” (Medchemcomm, 2015).

Tests used:
[1] = Cytotoxicity against human PC3 cells assessed as cell growth at 10 uM after 72 hrs by SRB assay relative to control; type: functional; settings: PC-3, 72 h, read-out: Activity
[2] = Cytotoxicity against human SF539 cells assessed as cell growth at 10 uM after 72 hrs by SRB assay relative to control; type: functional; settings: SF-539, 72 h, read-out: Activity
MDA-MB-468 = test: Cytotoxicity against human MDA-MB-468 cells assessed as cell growth at 10 uM after 72 hrs by SRB assay relative to control; type: functional; settings: MDA-MB-468, 72 h, read-out: Activity
SK-MEL-5 = test: Cytotoxicity against human SK-MEL-5 cells assessed as cell growth at 10 uM after 72 hrs by SRB assay relative to control; type: functional; settings: SK-MEL-5, 72 h, read-out: Activity
[3] = biological target: Vascular endothelial growth factor receptor 2 (Homo sapiens, UniProt P35968); test: Inhibition of human VEGFR2 at 10 uM after 20 to 40 mins by liquid scintillation counting analysis in presence of […]; parameters: scale not given: the % may be the effect or the level left
Sequence of Vascular endothelial growth factor receptor 2 (P35968 whole entry): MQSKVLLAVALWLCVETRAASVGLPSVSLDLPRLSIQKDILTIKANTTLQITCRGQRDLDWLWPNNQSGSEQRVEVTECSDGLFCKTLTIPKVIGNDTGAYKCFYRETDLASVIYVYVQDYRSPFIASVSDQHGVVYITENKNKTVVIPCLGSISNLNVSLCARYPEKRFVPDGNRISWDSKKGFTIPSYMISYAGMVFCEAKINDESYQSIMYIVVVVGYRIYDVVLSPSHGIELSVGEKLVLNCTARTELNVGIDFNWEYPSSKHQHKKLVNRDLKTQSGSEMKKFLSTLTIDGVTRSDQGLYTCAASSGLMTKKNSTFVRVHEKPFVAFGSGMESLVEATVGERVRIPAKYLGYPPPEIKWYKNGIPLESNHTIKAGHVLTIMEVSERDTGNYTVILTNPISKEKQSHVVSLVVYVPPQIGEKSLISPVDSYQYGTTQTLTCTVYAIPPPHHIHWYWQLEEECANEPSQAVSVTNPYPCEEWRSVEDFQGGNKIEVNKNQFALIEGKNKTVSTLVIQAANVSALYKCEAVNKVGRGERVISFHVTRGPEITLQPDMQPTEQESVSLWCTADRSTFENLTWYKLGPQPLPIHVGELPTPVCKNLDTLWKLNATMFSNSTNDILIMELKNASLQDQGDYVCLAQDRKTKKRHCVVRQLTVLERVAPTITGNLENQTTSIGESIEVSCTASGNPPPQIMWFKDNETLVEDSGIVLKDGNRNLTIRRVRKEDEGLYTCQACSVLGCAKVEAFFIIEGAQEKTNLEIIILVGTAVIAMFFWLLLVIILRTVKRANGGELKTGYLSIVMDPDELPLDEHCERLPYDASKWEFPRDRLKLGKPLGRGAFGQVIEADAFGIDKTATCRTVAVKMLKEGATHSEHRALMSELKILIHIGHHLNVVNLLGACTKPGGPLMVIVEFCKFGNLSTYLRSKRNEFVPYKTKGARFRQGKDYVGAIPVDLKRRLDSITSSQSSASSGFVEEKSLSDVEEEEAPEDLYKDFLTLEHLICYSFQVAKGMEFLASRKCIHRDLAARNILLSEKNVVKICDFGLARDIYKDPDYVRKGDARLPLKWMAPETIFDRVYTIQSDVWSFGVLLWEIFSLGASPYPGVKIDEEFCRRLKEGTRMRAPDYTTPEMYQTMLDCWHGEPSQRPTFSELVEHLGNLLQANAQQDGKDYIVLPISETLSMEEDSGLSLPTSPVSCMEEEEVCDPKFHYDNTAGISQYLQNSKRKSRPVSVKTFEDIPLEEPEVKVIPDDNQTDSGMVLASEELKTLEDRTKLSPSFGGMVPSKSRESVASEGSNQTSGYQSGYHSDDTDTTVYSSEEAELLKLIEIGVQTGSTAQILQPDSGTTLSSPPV

[4] = Cytotoxicity against human UO31 cells assessed as cell growth at 10 uM after 72 hrs by SRB assay relative to control; type: functional; settings: UO-31, 72 h, read-out: Activity
NCI-H322M = test: Cytotoxicity against human NCI-H322M cells assessed as cell growth at 10 uM after 72 hrs by SRB assay relative to control; type: functional; settings: read-out: Activity
[5] = Cytotoxicity against human DU145 cells assessed as cell growth at 10 uM after 72 hrs by SRB assay relative to control; type: functional; settings: DU-145, 72 h, read-out: Activity
K562 = test: Cytotoxicity against human K562 cells assessed as cell growth at 10 uM after 72 hrs by SRB assay relative to control; type: functional; settings: K562, 72 h, read-out: Activity
CCRF-CEM = test: Cytotoxicity against human CCRF-CEM cells assessed as cell growth at 10 uM after 72 hrs by SRB assay relative to control; type: functional; settings: read-out: Activity
[6] = Cytotoxicity against human RXF393 cells assessed as cell growth at 10 uM after 72 hrs by SRB assay relative to control; type: functional; settings: RXF 393, 72 h, read-out: Activity
[7] = Cytotoxicity against human SW620 cells assessed as cell growth at 10 uM after 72 hrs by SRB assay relative to control; type: functional; settings: SW-620, 72 h, read-out: Activity
[8] = Cytotoxicity against human UACC257 cells assessed as cell growth at 10 uM after 72 hrs by SRB assay relative to control; type: functional; settings: UACC-257, 72 h, read-out: Activity
[9] = Cytotoxicity against human HCT116 cells assessed as cell growth at 10 uM after 72 hrs by SRB assay relative to control; type: functional; settings: HCT-116, 72 h, read-out: Activity
A549 [10] = test: Cytotoxicity against human A549 cells assessed as cell growth at 10 uM after 72 hrs by SRB assay relative to control; type: functional; settings: A549, 72 h, read-out: Activity
[11] = Cytotoxicity against human RPMI8226 cells assessed as cell growth at 10 uM after 72 hrs by SRB assay relative to control; type: functional; settings: RPMI-8226, 72 h, read-out: Activity
NCI-H23 = test: Cytotoxicity against human NCI-H23 cells assessed as cell growth at 10 uM after 72 hrs by SRB assay relative to control; type: functional; settings: NCI-H23, 72 h, read-out: Activity
[12] = Cytotoxicity against human BT549 cells assessed as cell growth at 10 uM after 72 hrs by SRB assay relative to control; type: functional; settings: BT-549, 72 h, read-out: Activity
SK-MEL-2 = test: Cytotoxicity against human SK-MEL-2 cells assessed as cell growth at 10 uM after 72 hrs by SRB assay relative to control; type: functional; settings: SK-MEL-2, 72 h, read-out: Activity
[13] = Cytotoxicity against human OVCAR8 cells assessed as cell growth at 10 uM after 72 hrs by SRB assay relative to control; type: functional; settings: OVCAR-8, 72 h, read-out: Activity
[14] = Cytotoxicity against human TK10 cells assessed as cell growth at 10 uM after 72 hrs by SRB assay relative to control; type: functional; settings: TK-10, 72 h, read-out: Activity
[15] = Cytotoxicity against human RPMI8226 cells after 72 hrs by SRB assay; type: functional; settings: RPMI-8226, 72 h
A549 [16] = test: Downregulation of cyclin D1 expression in human A549 cells by immunohistochemical analysis relative to control; type: functional
[17] = Cytotoxicity against human SNB19 cells after 72 hrs by SRB assay; type: functional; settings: SNB-19, 72 h
Malme-3M = test: Cytotoxicity against human MALME-3M cells after 72 hrs by SRB assay; type: functional
SR = test: Cytotoxicity against human SR cells after 72 hrs by SRB assay; type: functional
[18] = Cytotoxicity against human UACC62 cells after 72 hrs by SRB assay; type: functional; settings: UACC-62, 72 h
[19] = Cytotoxicity against human BT549 cells after 72 hrs by SRB assay; type: functional; settings: BT-549, 72 h
NCI-H226 = test: Cytotoxicity against human NCI-H226 cells after 72 hrs by SRB assay; type: functional; settings: NCI-H226, 72 h
SN12C = test: Cytotoxicity against human SN12C cells after 72 hrs by SRB assay; type: functional
[20] = Cytotoxicity against human SF539 cells after 72 hrs by SRB assay; type: functional; settings: SF-539, 72 h
MDA-MB-231 = test: Cytotoxicity against human MDA-MB-231 cells after 72 hrs by SRB assay; type: functional; settings: MDA-MB-231, 72 h
KM12 = test: Cytotoxicity against human KM12 cells after 72 hrs by SRB assay; type: functional; settings: KM12, 72 h
[21] = Cytotoxicity against human LOXIMVI cells after 72 hrs by SRB assay; type: functional; settings: LOX IMVI
[22] = Cytotoxicity against human UO31 cells after 72 hrs by SRB assay; type: functional; settings: UO-31, 72 h
[23] = Cytotoxicity against human DU145 cells after 72 hrs by SRB assay; type: functional; settings: DU-145, 72 h
[24] = read-out: LC50 (the source's name)

## Cc1ccc2nc(Nc3ncnc4c3cnn4-c3ccccc3)sc2c1
[1]
  growth at 10 µM: 98.3%
[2]
  growth at 10 µM: 101%
MDA-MB-468
  growth at 10 µM: 80.3%
SK-MEL-5
  growth at 10 µM: 92.1%
[3]
  Activity: -1%
[4]
  growth at 10 µM: 91.7%
NCI-H322M
  growth at 10 µM: 45.7%
[5]
  growth at 10 µM: 103%
K562
  growth at 10 µM: 102%
CCRF-CEM
  growth at 10 µM: 87.9%
[6]
  growth at 10 µM: 99%
[7]
  growth at 10 µM: 100%
[8]
  growth at 10 µM: 112%
[9]
  growth at 10 µM: 99.4%
A549 [10]
  growth at 10 µM: 102%
[11]
  growth at 10 µM: 102%
NCI-H23
  growth at 10 µM: 106%
[12]
  growth at 10 µM: 108%
SK-MEL-2
  growth at 10 µM: 109%
[13]
  growth at 10 µM: 107%
[14]
  growth at 10 µM: 118%

## O=C(NC1CCCCC1)c1ccc(Nc2ncnc3c2cnn3-c2ccccc2)cc1
[15]
  GI50: > 100 µM
  TGI: > 100 µM
[15]; [24]
  CC50: > 100 µM
A549 [16]
  Activity: 51%
[1]
  growth at 10 µM: 53.3%
[2]
  growth at 10 µM: 43.7%
MDA-MB-468
  growth at 10 µM: 76.1%
SK-MEL-5
  growth at 10 µM: 75.4%
[17]
  GI50: 3.82 µM
  TGI: 18.9 µM
[17]; [24]
  CC50: > 100 µM
[3]
  Activity: 7%
[4]
  growth at 10 µM: 57.7%
NCI-H322M
  growth at 10 µM: 64%
[5]
  growth at 10 µM: 54.6%
K562
  growth at 10 µM: 73.2%
CCRF-CEM
  growth at 10 µM: 64.9%
Malme-3M
  GI50: 1.97 µM
  TGI: 4.94 µM
Malme-3M; [24]
  CC50: 21 µM
SR
  GI50: 11.6 µM
  TGI: 49.1 µM
SR; [24]
  CC50: > 100 µM
[18]
  GI50: 17.4 µM
  TGI: > 100 µM
[18]; [24]
  CC50: > 100 µM
[6]
  growth at 10 µM: 62.2%
[19]
  GI50: 5.69 µM
  TGI: 26.4 µM
[19]; [24]
  CC50: 91.9 µM
[7]
  growth at 10 µM: 72.9%
NCI-H226
  GI50: 3.35 µM
  TGI: 21.5 µM
NCI-H226; [24]
  CC50: > 100 µM
[8]
  growth at 10 µM: 56.5%
[9]
  growth at 10 µM: 37.6%
SN12C
  GI50: 8.26 µM
  TGI: > 100 µM
SN12C; [24]
  CC50: > 100 µM
A549 [10]
  growth at 10 µM: 16.6%
[20]
  GI50: 3.81 µM
  TGI: 17.1 µM
[20]; [24]
  CC50: 49 µM
MDA-MB-231
  GI50: 5.09 µM
  TGI: 21.9 µM
MDA-MB-231; [24]
  CC50: 80.6 µM
KM12
  GI50: 57.8 µM
  TGI: > 100 µM
KM12; [24]
  CC50: > 100 µM
[11]
  growth at 10 µM: 89.5%
[21]
  GI50: 4.49 µM
  TGI: 22.3 µM
[21]; [24]
  CC50: > 100 µM
NCI-H23
  growth at 10 µM: 72%
[12]
  growth at 10 µM: 59.8%
SK-MEL-2
  growth at 10 µM: 79.1%
[22]
  GI50: 23.9 µM
  TGI: > 100 µM
[22]; [24]
  CC50: > 100 µM
[13]
  growth at 10 µM: 21.6%
[14]
  growth at 10 µM: 51%
[23]
  GI50: 10.6 µM
  TGI: 48.1 µM
[23]; [24]
  CC50: > 100 µM

## c1ccc(COc2ccc(Nc3ncnc4c3cnn4-c3ccccc3)cc2)cc1
[1]
  growth at 10 µM: 88.5%
[2]
  growth at 10 µM: 99.6%
MDA-MB-468
  growth at 10 µM: 93.1%
SK-MEL-5
  growth at 10 µM: 94.3%
[3]
  Activity: -5%
[4]
  growth at 10 µM: 79.6%
NCI-H322M
  growth at 10 µM: 84.1%
[5]
  growth at 10 µM: 104%
K562
  growth at 10 µM: 90.3%
CCRF-CEM
  growth at 10 µM: 80.8%
[6]
  growth at 10 µM: 102%
[7]
  growth at 10 µM: 98.7%
[8]
  growth at 10 µM: 121%
[9]
  growth at 10 µM: 106%
A549 [10]
  growth at 10 µM: 104%
[11]
  growth at 10 µM: 96.5%
NCI-H23
  growth at 10 µM: 109%
[12]
  growth at 10 µM: 106%
SK-MEL-2
  growth at 10 µM: 115%
[13]
  growth at 10 µM: 113%
[14]
  growth at 10 µM: 111%

## O=c1sc2cc(Nc3ncnc4c3cnn4-c3ccccc3)ccc2n1Cc1ccc(Cl)cc1
[1]
  growth at 10 µM: 55.6%
[2]
  growth at 10 µM: 79.2%
MDA-MB-468
  growth at 10 µM: 65.9%
SK-MEL-5
  growth at 10 µM: 87.2%
[3]
  Activity: -7%
[4]
  growth at 10 µM: 50.7%
NCI-H322M
  growth at 10 µM: 75.7%
[5]
  growth at 10 µM: 94.5%
K562
  growth at 10 µM: 49.6%
CCRF-CEM
  growth at 10 µM: 63.6%
[6]
  growth at 10 µM: 79.5%
[7]
  growth at 10 µM: 84.4%
[8]
  growth at 10 µM: 92.6%
[9]
  growth at 10 µM: 80.3%
A549 [10]
  growth at 10 µM: 78%
[11]
  growth at 10 µM: 63.5%
NCI-H23
  growth at 10 µM: 84.7%
[12]
  growth at 10 µM: 101%
SK-MEL-2
  growth at 10 µM: 88%
[13]
  growth at 10 µM: 87.9%
[14]
  growth at 10 µM: 105%

## Clc1ccc(-n2ncc3c(Nc4ccc(OCc5ccccc5)cc4)ncnc32)cc1
[1]
  growth at 10 µM: 86.1%
[2]
  growth at 10 µM: 92.4%
MDA-MB-468
  growth at 10 µM: 91.5%
SK-MEL-5
  growth at 10 µM: 94.4%
[3]
  Activity: 0%
[4]
  growth at 10 µM: 83.6%
NCI-H322M
  growth at 10 µM: 75%
[5]
  growth at 10 µM: 100%
K562
  growth at 10 µM: 87.3%
CCRF-CEM
  growth at 10 µM: 78.9%
[6]
  growth at 10 µM: 97.8%
[7]
  growth at 10 µM: 101%
[8]
  growth at 10 µM: 102%
[9]
  growth at 10 µM: 94.8%
A549 [10]
  growth at 10 µM: 88.8%
[11]
  growth at 10 µM: 86.4%
NCI-H23
  growth at 10 µM: 92.7%
[12]
  growth at 10 µM: 107%
[13]
  growth at 10 µM: 98%
[14]
  growth at 10 µM: 92.1%
